The target of this experiment is USP30 (Homo sapiens (Human), UniProt Q70CQ3). In words: In vitro biochemical assay for USP30 enzyme (Ubiquitin-Rhodamine110 cleavage, fluorescence). Particulars: 20 nM USP30, 15 min pre-incubation, 100 nM Ub rhodamine substrate, 2 hrs at room temperature. As for the experimental part: In vitro biochemical assay for USP30 enzyme
The in vitro assay for USP30 evaluates the ability of a test compound to inhibit the activity of the enzyme to cleave ubiquitin from a substrate. Ubiquitin-rhodamine 110 is a quenched, fluorescent substrate for USP30. Cleavage of the amide bond between the C-terminal glycine of ubiquitin and rhodamine results in an increase in rhodamine fluorescence at 535 nm (Exc. 485 nm).
Incubation of the substrate in the presence or absence of USP30 was compared to confirm the deubiquitylating activity of USP30. The USP30 enzyme assay was performed by pre-incubating 20 nM of USP30 with varying concentration of a test compound in the assay buffer [PBS (pH 7.4), 1 mM DTT, 0.01% Tween 20, 0.01% BSA, DMSO final concentration is 1%] for 15 mins at room temperature, following which 100 nM of substrate Ub rhodamine was added and incubated at room temperature for 2 hrs and the plate was read for fluorescence intensity at Ex. 485 nm/535 nm in VICTOR X5 plate reader. The percent inhibition of activity of the enzyme is calculated by comparing counts in the presence and absence of compounds.
Test compounds were screened at various concentrations (10-12 tested concentrations) and dose response curves were generated was generated using GraphPad Prism software Version 7 (San Diego, Calif., USA) with non-linear regression curve fit for sigmoidal dose response (variable slope).

Where only a bound is given, the exact number is not on record here.

USP30, sequence (Q70CQ3 whole entry): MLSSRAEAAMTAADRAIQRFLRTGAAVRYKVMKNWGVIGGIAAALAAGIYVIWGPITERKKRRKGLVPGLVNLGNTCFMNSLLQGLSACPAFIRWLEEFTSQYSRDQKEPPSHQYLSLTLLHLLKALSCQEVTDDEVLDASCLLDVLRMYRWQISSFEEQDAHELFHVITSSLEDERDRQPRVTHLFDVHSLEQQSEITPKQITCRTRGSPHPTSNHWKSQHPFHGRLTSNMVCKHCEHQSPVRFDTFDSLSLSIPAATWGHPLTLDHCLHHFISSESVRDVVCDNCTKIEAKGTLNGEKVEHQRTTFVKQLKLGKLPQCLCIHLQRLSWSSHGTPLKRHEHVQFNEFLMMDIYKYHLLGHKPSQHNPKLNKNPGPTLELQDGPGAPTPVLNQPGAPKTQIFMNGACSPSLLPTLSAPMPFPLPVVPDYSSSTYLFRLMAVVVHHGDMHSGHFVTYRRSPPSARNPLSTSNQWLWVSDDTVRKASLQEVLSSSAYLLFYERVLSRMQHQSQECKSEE

For the molecule `CC(C)(C)NS(=O)(=O)c1ccc(NC(=O)[C@H](CC2CCCCC2)NC(=O)c2ccccn2)cc1` [Compound 14j, (S)-N-(1-((4-(N-(tert-butyl)sulfamoyl)phenyl)amino)-3-cyclohexyl-1-oxopropan-2-yl)picolinamide], the 50% inhibitory concentration (IC50) turned out to be 123 nM.

For `CC(C)(C)NS(=O)(=O)c1ccc(NC(=O)[C@H](Cc2cccs2)NC(=O)C2CCCCC2)cc1` [Compound 19a, (S)-N-(1-((4-(N-(tert-butyl)sulfamoyl)phenyl)amino)-1-oxo-3-(thiophen-2-yl)propan-2-yl)cyclohexanecarboxamide], the IC50 is 28 nM.

On to `COc1ccc(C[C@H](NC(=O)c2cccnc2)C(=O)Nc2ccc(S(=O)(=O)NC(C)(C)C)cc2)cc1` [Compound 19aa, (S)-N-(1-((4-(N-(tert-butyl)sulfamoyl)phenyl)amino)-3-(4-methoxyphenyl)-1-oxopropan-2-yl)nicotinamide], for which inhibition was half-maximal at 208 nM (IC50).

Turning to `COc1ccc(C[C@H](NC(=O)c2ccncc2)C(=O)Nc2ccc(S(=O)(=O)NC(C)(C)C)cc2)cc1` [Compound 19ab, (S)-N-(1-((4-(N-(tert-butyl)sulfamoyl)phenyl)amino)-3-(4-methoxyphenyl)-1-oxopropan-2-yl)isonicotinamide], half-maximal inhibition (IC50) required 2400 nM.

In turn, `CC(C)(C)NS(=O)(=O)c1ccc(NC(=O)[C@H](CC2CCOCC2)NC(=O)C2CCCCC2)cc1` [Compound 19ac, (S)-N-(1-((4-(N-(tert-butyl)sulfamoyl)phenyl)amino)-1-oxo-3-(tetrahydro-2H-pyran-4-yl)propan-2-yl)cyclohexanecarboxamide] registered a half-inhibitory concentration (IC50) of 71 nM.

Regarding `CC(C)(C)NS(=O)(=O)c1ccc(NC(=O)[C@H](Cc2cccc(C#N)c2)NC(=O)C2CCCCC2)cc1` [Compound 19ad, (S)-N-(1-((4-(N-(tert-butyl)sulfamoyl)phenyl)amino)-3-(3-cyanophenyl)-1-oxopropan-2-yl)cyclohexanecarboxamide], the IC50 worked out at 41 nM.

Regarding `CC(C)(C)NS(=O)(=O)c1ccc(NC(=O)[C@H](Cc2ccc(OC(F)(F)F)cc2)NC(=O)c2ccc(F)cc2)cc1` [Compound 19ae, (S)-N-(1-((4-(N-(tert-butyl)sulfamoyl)phenyl)amino)-1-oxo-3-(4-(trifluoromethoxy)phenyl)propan-2-yl)-4-fluorobenzamide], 3600 nM corresponded to half-maximal inhibition (IC50).

Molecule `CC(C)(C)NS(=O)(=O)c1ccc(NC(=O)[C@H](Cc2ccc(F)cc2)NC(=O)c2ccccc2)cc1` [Compound 19b, (S)-N-(1-((4-(N-(tert-butyl)sulfamoyl)phenyl)amino)-3-(4-fluorophenyl)-1-oxopropan-2-yl)benzamide] yielded a concentration for half-maximal inhibition (IC50) of 133 nM.

As to `CC(C)(C)NS(=O)(=O)c1ccc(NC(=O)[C@H](CC2CC2)NC(=O)C2CCCCC2)cc1` [Compound 19c, (S)-N-(1-((4-(N-(tert-butyl)sulfamoyl)phenyl)amino)-3-cyclopropyl-1-oxopropan-2-yl)cyclohexanecarboxamide], the IC50 came out at 810 nM.

For `CC(C)(C)NS(=O)(=O)c1ccc(NC(=O)[C@H](Cc2cccc(Cl)c2)NC(=O)C2CCCCC2)cc1` [Compound 19e, (S)-N-(1-((4-(N-(tert-butyl)sulfamoyl)phenyl)amino)-3-(3-chlorophenyl)-1-oxopropan-2-yl)cyclohexanecarboxamide], the IC50 was greater than 10000 nM.

`COc1ccc(C[C@H](NC(=O)c2ccc(F)cc2)C(=O)Nc2ccc(S(=O)(=O)NC(C)(C)C)cc2)cc1` [Compound 19f, (S)-N-(1-((4-(N-(tert-butyl)sulfamoyl)phenyl)amino)-3-(4-methoxyphenyl)-1-oxopropan-2-yl)-4-fluorobenzamide]: the IC50 amounted to 22 nM.

`CC(C)(C)NS(=O)(=O)c1ccc(NC(=O)[C@H](Cc2cccs2)NC(=O)c2ccc(F)cc2)cc1` [Compound 19g, (S)-N-(1-((4-(N-(tert-butyl)sulfamoyl)phenyl)amino)-1-oxo-3-(thiophen-2-yl)propan-2-yl)-4-fluorobenzamide] showed a half-inhibitory concentration (IC50) of 19 nM. The IC50 values of the last two molecules are within 1.5-fold of each other.

As for `CC(C)NS(=O)(=O)c1ccc(NC(=O)[C@H](Cc2ccccc2)NC(=O)C2CCCCC2)cc1` [Compound 19h, (S)-N-(1-((4-(N-isopropylsulfamoyl)phenyl)amino)-1-oxo-3-phenylpropan-2-yl)cyclohexanecarboxamide], it took 179 nM to reach half-maximal inhibition (IC50).

`C[C@@H](O)[C@H](NC(=O)C1CCCCC1)C(=O)Nc1ccc(S(=O)(=O)NC(C)(C)C)cc1` [Compound 19i, N-((2S,3R)-1-((4-(N-(tert-butyl)sulfamoyl)phenyl)amino)-3-hydroxy-1-oxobutan-2-yl)cyclohexanecarboxamide] returned an IC50 greater than 10000 nM.

Molecule `CC(C)(C)NS(=O)(=O)c1ccc(NC(=O)[C@H](CO)NC(=O)C2CCCCC2)cc1` [Compound 19j, (S)-N-(1-((4-(N-(tert-butyl)sulfamoyl)phenyl)amino)-3-hydroxy-1-oxopropan-2-yl)cyclohexanecarboxamide] returned a half-inhibitory concentration (IC50) greater than 10000 nM.

In turn, `CC(C)(C)NS(=O)(=O)c1ccc(NC(=O)[C@H](Cc2ccc(F)cc2)NC(=O)c2ccc(F)cc2)cc1` [Compound 19k, (S)-N-(1-((4-(N-(tert-butyl)sulfamoyl)phenyl)amino)-3-(4-fluorophenyl)-1-oxopropan-2-yl)-4-fluorobenzamide] registered a 50% inhibitory concentration (IC50) of 26 nM.

The molecule `CC(C)(C)NS(=O)(=O)c1ccc(NC(=O)[C@H](Cc2ccc(-c3ccccc3)cc2)NC(=O)c2ccc(F)cc2)cc1` [Compound 19l, (S)-N-(3-([1,1′-biphenyl]-4-yl)-1-((4-(N-(tert-butyl)sulfamoyl)phenyl)amino)-1-oxopropan-2-yl)-4-fluorobenzamide] registered an IC50 of 169 nM. This IC50 lies about 6.5-fold higher than the previous one.

As to `CC(C)(C)NS(=O)(=O)c1ccc(NC(=O)[C@H](Cc2ccccc2)NC(=O)C2CCCCC2)cc1F` [Compound 19m, (S)-N-(1-((4-(N-(tert-butyl)sulfamoyl)-3-fluorophenyl)amino)-1-oxo-3-phenylpropan-2-yl)cyclohexanecarboxamide], the IC50 came to 275 nM. Compared with the last molecule, the IC50 is about 1.6-fold higher.

The molecule `CC(C)(C)NS(=O)(=O)c1ccc(NC(=O)[C@H](Cc2cccnc2)NC(=O)c2ccc(F)cc2)cc1` [Compound 19n, (S)-N-(1-((4-(N-(tert-butyl)sulfamoyl)phenyl)amino)-1-oxo-3-(pyridin-3-yl)propan-2-yl)-4-fluorobenzamide] had an IC50 of 16 nM.

`CC(C)(C)NS(=O)(=O)c1ccc(NC(=O)[C@H](Cc2ccccn2)NC(=O)c2ccc(F)cc2)cc1` [Compound 19o, (S)-N-(1-((4-(N-(tert-butyl)sulfamoyl)phenyl)amino)-1-oxo-3-(pyridin-2-yl)propan-2-yl)-4-fluorobenzamide] showed an IC50 of 48 nM. Compared with the last molecule, the IC50 is about 3-fold higher.

As to `CC(C)(C)NS(=O)(=O)c1cccc2c(NC(=O)[C@H](CC3CCCCC3)NC(=O)C3CCCCC3)cccc12` [Compound 19p, (S)-N-(1-((5-(N-(tert-butyl)sulfamoyl)naphthalen-1-yl)amino)-3-cyclohexyl-1-oxopropan-2-yl)cyclohexanecarboxamide], the IC50 is 195 nM.

In turn, `CC(C)(C)NS(=O)(=O)c1cccc2c(NC(=O)[C@H](Cc3ccccc3)NC(=O)/C=C/c3ccccc3)cccc12` [Compound 19q, (S)-N-(1-((5-(N-(tert-butyl)sulfamoyl)naphthalen-1-yl)amino)-1-oxo-3-phenylpropan-2-yl)cinnamamide] came in with an IC50 greater than 10000 nM.

For `CC(C)(C)NS(=O)(=O)c1ccc(NC(=O)[C@H](Cc2cccs2)NC(=O)c2ccccn2)cc1` [Compound 19s, (S)-N-(1-((4-(N-(tert-butyl)sulfamoyl)phenyl)amino)-1-oxo-3-(thiophen-2-yl)propan-2-yl)picolinamide], the half-inhibitory concentration (IC50) was 200 nM.

`COc1ccc(C(=O)N[C@@H](Cc2cccs2)C(=O)Nc2ccc(S(=O)(=O)NC(C)(C)C)cc2)nc1` [Compound 19t, (S)-N-(1-((4-(N-(tert-butyl)sulfamoyl)phenyl)amino)-1-oxo-3-(thiophen-2-yl)propan-2-yl)-5-methoxypicolinamide] returned a half-inhibitory concentration (IC50) of 1040 nM.

`COc1ccc(C[C@H](NC(=O)c2ccccn2)C(=O)Nc2ccc(S(=O)(=O)NC(C)(C)C)cc2)cc1` [Compound 19u, (S)-N-(1-((4-(N-(tert-butyl)sulfamoyl)phenyl)amino)-3-(4-methoxyphenyl)-1-oxopropan-2-yl)picolinamide] showed an IC50 of 195 nM. This IC50 is about 5.3-fold lower than that of the molecule before.

The molecule `COc1ccc(C[C@H](NC(=O)c2cncs2)C(=O)Nc2ccc(S(=O)(=O)NC(C)(C)C)cc2)cc1` [Compound 19w, (S)-N-(1-((4-(N-(tert-butyl)sulfamoyl)phenyl)amino)-3-(4-methoxyphenyl)-1-oxopropan-2-yl)thiazole-5-carboxamide] displayed a half-maximal inhibitory concentration (IC50) greater than 10000 nM.

With `COc1ccc(C[C@H](NC(=O)c2cscn2)C(=O)Nc2ccc(S(=O)(=O)NC(C)(C)C)cc2)cc1` [Compound 19x, (S)-N-(1-((4-(N-(tert-butyl)sulfamoyl)phenyl)amino)-3-(4-methoxyphenyl)-1-oxopropan-2-yl)thiazole-4-carboxamide], the IC50 was greater than 10000 nM.

As to `CC(C)(C)NS(=O)(=O)c1ccc(NC(=O)[C@H](Cc2ccncc2)NC(=O)c2ccc(F)cc2)cc1` [Compound 19y, (S)-N-(1-((4-(N-(tert-butyl)sulfamoyl)phenyl)amino)-1-oxo-3-(pyridin-4-yl)propan-2-yl)-4-fluorobenzamide], the 50% inhibitory concentration (IC50) was determined as 20 nM. This lies in the double-digit nanomolar range.

The values above are taken from patent US10968172B2, “USP30 inhibitors” (Mitobridge, Inc., priority 2017, dated 2021).
